Source: US20240384350A1, “METHODS OF TREATING CANCER WITH KINASE INHIBITORS” (BOARD OF REGENTS, THE UNIVERSITY OF TEXAS SYSTEM, priority 2021, published 2024)

Columns and labels:
Experiment in all cases: Ba/F3 drug screening, Cell Titer Glo, IC50 Mut/WT
Format in all cases: cell-based
EGFR T790M = biological target: T1, EGFR T790M (Homo sapiens, UniProt P00533, T790M); details: T790M-like-3S, 72 hours
T1 construct: expressed in transfected cells; host or cells: Ba/F3

EGFR Ex19del T790M L718V = biological target: T2, EGFR Ex19del T790M L718V (Homo sapiens, UniProt P00533, DEL746-750/L718V/T790M); details: T790M-like-3S, 72 hours
T2 construct: expressed in transfected cells; host or cells: Ba/F3

EGFR L858R/L718V = biological target: T3, EGFR L858R/L718V (Homo sapiens, UniProt P00533, L718V/L858R); details: Ba/F3 cells, EGFR L858R/L718V (PACC), Mut/WT
T3 construct: host or cells: Ba/F3
Experimental: (§1) Data represent the ratio of the IC50 value for a given TKI for cells with a PACC EGFR mutation to the IC50 value for cells with wildtype EGFR.
(§2) Ba/F3 cell generation, drug screening, and IC50 approximations. Ba/F3 cells were obtained as a gift from Dr. Gordon Mills (MD Anderson Cancer Center), and maintained in RPMI (Sigma) containing 10% FBS, 1% penicillin/streptomycin, and 10 ng/ml recombinant mIL-3 (R&D Biosystems). To establish stable Ba/F3 cell lines, Ba/F3 cells were transduced with retroviruses containing mutant EGFR plasmids for 12-24 hours.
(§3) After 48-72 hours of transduction, 2 μg/ml puromycin (Invitrogen) was added to Ba/F3 cell lines in complete RPMI. To select for EGFR positive cell lines, cells were stained with PE-EGFR (Biolegend) and sorted by FACS. After sorting, EGFR positive cells were maintained in RPMI containing 10% FBS, 1% penicillin/streptomycin, and 1 ng/ml EGF to support cell viability. Drug screening was performed as previously described^41,42. Shortly, cells were plated in 384-well plates (Greiner Bio-One) at 2000-3000 cells per well in technical triplicate. Seven different concentrations of TKIs or DMSO vehicle were added to reach a final volume of 40 μL per well. After 72 hours, 11 μL of Cell Titer Glo (Promega) was added to each well. Plates were incubated for a minimum of 10 minutes, and bioluminescence was determined using a FLUOstar OPTIMA plate reader (BMG LABTECH). Raw bioluminescence values were normalized to DMSO control treated cells, and values were plotted in GraphPad Prism. […] Drug screens were performed in technical triplicate on each plate and either duplicate or triplicate biological replicates.

EGFR S768I/V769L = biological target: T4, EGFR S768I/V769L (Homo sapiens, UniProt P00533, S768I/V769L); details: Ba/F3 cells, EGFR S768I/V769L (PACC), Mut/WT
T4 construct: host or cells: Ba/F3

EGFR I740dupIPVAK = details: Ba/F3 cells, EGFR I740dupIPVAK (PACC), Mut/WT
Experimental: as §1, §2, §3

EGFR Ex19del L718Q = biological target: T5, EGFR Ex19del L718Q (Homo sapiens, UniProt P00533, DEL746-750/L718Q); details: Ba/F3 cells, EGFR Ex19del L718Q (PACC), Mut/WT
T5 construct: expressed in transfected cells; host or cells: Ba/F3

EGFR N771dupN G724S = biological target: T6, EGFR N771dupN G724S (Homo sapiens, UniProt P00533, DUP771-771/G724S); details: Ex20, 72 hours
T6 construct: expressed in transfected cells; host or cells: Ba/F3 cells, retroviral pBabe-Puro vector (vector made by GeneScript from EGFR G724S, c.2313_2314insAAC)

EGFR E709A = biological target: T7, EGFR E709A (Homo sapiens, UniProt P00533, E709A); details: Ba/F3 cells, EGFR E709A (PACC), Mut/WT
T7 construct: expressed in transfected cells; host or cells: Ba/F3
Experimental: as §1, §2, §3

EGFR G719S T790M = biological target: T8, EGFR G719S T790M (Homo sapiens, UniProt P00533, G719S/T790M); details: T790M-like-3S, 72 hours
T8 construct: expressed in transfected cells; host or cells: Ba/F3

EGFR S768I = biological target: T9, EGFR S768I (Homo sapiens, UniProt P00533, S768I); details: Ba/F3 cells, EGFR S768I (PACC), Mut/WT
T9 construct: expressed in transfected cells; host or cells: Ba/F3

EGFR S768I/T790M = biological target: T10, EGFR S768I/T790M (Homo sapiens, UniProt P00533, S768I/T790M); details: T790M-like-3S, 72 hours
T10 construct: expressed in transfected cells; host or cells: Ba/F3
Experimental: (§4) Data represent the ratio of the IC50 value for a given TKI for cells with a T790M-like-3S EGFR mutation to the IC50 value for cells with wildtype EGFR.
as §2, §3

EGFR L858R/T790M = biological target: T11, EGFR L858R/T790M (Homo sapiens, UniProt P00533, L858R/T790M); details: T790M-like-3S, 72 hours
T11 construct: expressed in transfected cells; host or cells: Ba/F3
Experimental: as §4, §2, §3

EGFR S768I V774M = biological target: T12, EGFR S768I V774M (Homo sapiens, UniProt P00533, S768I/V774M); details: Ba/F3 cells, EGFR S768I V774M (PACC), Mut/WT
T12 construct: host or cells: Ba/F3

EGFR V769L = biological target: T13, EGFR V769L (Homo sapiens, UniProt P00533, V769L); details: Ba/F3 cells, EGFR V769L (PACC), Mut/WT
T13 construct: expressed in transfected cells; host or cells: Ba/F3

EGFR L747P = biological target: T14, EGFR L747P (Homo sapiens, UniProt P00533, L747P); details: Ba/F3 cells, EGFR L747P (PACC), Mut/WT
T14 construct: expressed in transfected cells; host or cells: Ba/F3

EGFR R776C = biological target: T15, EGFR R776C (Homo sapiens, UniProt P00533, R776C); details: Ba/F3 cells, EGFR R776C (PACC), Mut/WT
T15 construct: host or cells: Ba/F3
Experimental: as §1, §2, §3

EGFR V774M = biological target: T16, EGFR V774M (Homo sapiens, UniProt P00533, V774M); details: Ba/F3 cells, EGFR V774M (PACC), Mut/WT
T16 construct: host or cells: Ba/F3

EGFR L858R L718Q = biological target: T17, EGFR L858R L718Q (Homo sapiens, UniProt P00533, L718Q/L858R); details: Ba/F3 cells, EGFR L858R L718Q (PACC), Mut/WT
T17 construct: host or cells: Ba/F3

EGFR L861Q = biological target: T18, EGFR L861Q (Homo sapiens, UniProt P00533, L861Q); details: Classical-Like, 72 hours
T18 construct: expressed in transfected cells; host or cells: Ba/F3 cells, retroviral pBabe-Puro vector

EGFR G719A T790M = biological target: T19, EGFR G719A T790M (Homo sapiens, UniProt P00533, G719A/T790M); details: T790M-like-3S, 72 hours
T19 construct: expressed in transfected cells; host or cells: Ba/F3

EGFR N771dupN = biological target: T20, EGFR N771dupN (Homo sapiens, UniProt P00533, DUP771-771); details: Ex20, 72 hours
T20 construct: expressed in transfected cells; host or cells: Ba/F3 cells, retroviral pBabe-Puro vector
Experimental: Data represent the ratio of the IC50 value for a given TKI for cells with an ex20ins EGFR mutation to the IC50 value for cells with wildtype EGFR.
as §2
After 48-72 hours of transduction, 2 μg/ml puromycin (Invitrogen) was added to Ba/F3 cell lines in complete RPMI. To select for EGFR positive cell lines, cells were stained with PE-EGFR (Biolegend) and sorted by FACS. After sorting, EGFR positive cells were maintained in RPMI containing 10% FBS, 1% penicillin/streptomycin, and 1 ng/ml EGF to support cell viability. Drug screening was performed as previously described^41,42. Shortly, cells were plated in 384-well plates (Greiner Bio-One) at 2000-3000 cells per well in technical triplicate. Seven different concentrations of TKIs or DMSO vehicle were added to reach a final volume of 40 μL per well. After 72 hours, 11 μL of Cell Titer Glo (Promega) was added to each well. Plates were incubated for a minimum of 10 minutes, and bioluminescence was determined using a FLUOstar OPTIMA plate reader (BMG LABTECH). Raw bioluminescence values were normalized to DMSO control treated cells, and values were plotted in GraphPad Prism. […] Drug screens were performed in technical triplicate on each plate and either duplicate or triplicate biological replicates. […] Statistical differences between groups were determined by ANOVA as described in the figure legends.

EGFR E709A G719S = biological target: T21, EGFR E709A G719S (Homo sapiens, UniProt P00533, E709A/G719S); details: Ba/F3 cells, EGFR E709A G719S (PACC), Mut/WT
T21 construct: expressed in transfected cells; host or cells: Ba/F3
Experimental: as §1, §2, §3

EGFR L858R T790M L792H = biological target: T22, EGFR L858R T790M L792H (Homo sapiens, UniProt P00533, L792H/L858R/T790M); details: T790M-like-3S, 72 hours
T22 construct: expressed in transfected cells; host or cells: Ba/F3

EGFR S784F = biological target: T23, EGFR S784F (Homo sapiens, UniProt P00533, S784F); details: Classical-Like, 72 hours
T23 construct: expressed in transfected cells; host or cells: Ba/F3 cells, retroviral pBabe-Puro vector (vector made by GeneScript from EGFR WT)
Experimental: Data represent the ratio of the IC50 value for a given TKI for cells with a classical-like EGFR mutation to the IC50 value for cells with wildtype EGFR.
as §2
After 48-72 hours of transduction, 2 μg/ml puromycin (Invitrogen) was added to Ba/F3 cell lines in complete RPMI. To select for EGFR positive cell lines, cells were stained with PE-EGFR (Biolegend) and sorted by FACS. After sorting, EGFR positive cells were maintained in RPMI containing 10% FBS, 1% penicillin/streptomycin, and 1 ng/ml EGF to support cell viability. […] Shortly, cells were plated in 384-well plates (Greiner Bio-One) at 2000-3000 cells per well in technical triplicate. Seven different concentrations of TKIs or DMSO vehicle were added to reach a final volume of 40 μL per well. After 72 hours, 11 μL of Cell Titer Glo (Promega) was added to each well. Plates were incubated for a minimum of 10 minutes, and bioluminescence was determined using a FLUOstar OPTIMA plate reader (BMG LABTECH). Raw bioluminescence values were normalized to DMSO control treated cells, and values were plotted in GraphPad Prism. […] Drug screens were performed in technical triplicate on each plate and either duplicate or triplicate biological replicates.

EGFR S811F = biological target: T24, EGFR S811F (Homo sapiens, UniProt P00533, S811F); details: Classical-Like, 72 hours
T24 construct: expressed in transfected cells; host or cells: Ba/F3 cells, retroviral pBabe-Puro vector (vector made by GeneScript from EGFR WT)

EGFR Ex19del/T790M/L792H = biological target: T25, EGFR Ex19del/T790M/L792H (Homo sapiens, UniProt P00533, DEL746-750/L792H/T790M); details: T790M-like-3R, 72 hours
T25 construct: expressed in transfected cells; host or cells: Ba/F3

EGFR G724S = biological target: T26, EGFR G724S (Homo sapiens, UniProt P00533, G724S); details: Ba/F3 cells, EGFR G724S (PACC), Mut/WT
T26 construct: expressed in transfected cells; host or cells: Ba/F3

ratio of IC50 for cells with mutant EGFR to IC50 for cells with wildtype EGFR (Mut/WT) (EGFR T790M) | ratio of IC50 for cells with mutant EGFR to IC50 for cells with wildtype EGFR (Mut/WT) (EGFR Ex19del T790M L718V) | ratio of the IC50 value for cells with a PACC EGFR mutation to the IC50 value for cells with wildtype EGFR (EGFR L858R/L718V) | ratio of the IC50 value for cells with a PACC EGFR mutation to the IC50 value for cells with wildtype EGFR (EGFR S768I/V769L) | ratio of the IC50 value for cells with a PACC EGFR mutation to the IC50 value for cells with wildtype EGFR (EGFR I740dupIPVAK) | ratio of the IC50 value for cells with a PACC EGFR mutation to the IC50 value for cells with wildtype EGFR (EGFR Ex19del L718Q) | ratio of IC50 for cells with mutant EGFR to IC50 for cells with wildtype EGFR (Mut/WT) (EGFR N771dupN G724S) | ratio of the IC50 value for cells with a PACC EGFR mutation to the IC50 value for cells with wildtype EGFR (EGFR E709A) | ratio of IC50 for cells with mutant EGFR to IC50 for cells with wildtype EGFR (Mut/WT) (EGFR G719S T790M) | ratio of the IC50 value for cells with a PACC EGFR mutation to the IC50 value for cells with wildtype EGFR (EGFR S768I) | ratio of IC50 for cells with mutant EGFR to IC50 for cells with wildtype EGFR (Mut/WT) (EGFR S768I/T790M) | ratio of IC50 for cells with mutant EGFR to IC50 for cells with wildtype EGFR (Mut/WT) (EGFR L858R/T790M) | ratio of the IC50 value for cells with a PACC EGFR mutation to the IC50 value for cells with wildtype EGFR (EGFR S768I V774M) | ratio of the IC50 value for cells with a PACC EGFR mutation to the IC50 value for cells with wildtype EGFR (EGFR V769L) | ratio of the IC50 value for cells with a PACC EGFR mutation to the IC50 value for cells with wildtype EGFR (EGFR L747P) | ratio of the IC50 value for cells with a PACC EGFR mutation to the IC50 value for cells with wildtype EGFR (EGFR R776C) | ratio of the IC50 value for cells with a PACC EGFR mutation to the IC50 value for cells with wildtype EGFR (EGFR V774M) | ratio of the IC50 value for cells with a PACC EGFR mutation to the IC50 value for cells with wildtype EGFR (EGFR L858R L718Q) | ratio of IC50 for cells with mutant EGFR to IC50 for cells with wildtype EGFR (Mut/WT) (EGFR L861Q) | ratio of IC50 for cells with mutant EGFR to IC50 for cells with wildtype EGFR (Mut/WT) (EGFR G719A T790M) | SMILES | other results
0.1166 | 0.2594 | 1.03 | 0.2253 | 0.1352 | 0.03801 | 0.3384 | 0.07784 | 0.04811 | 0.5273 | 0.0197 | 0.01957 | 0.09563 | 0.1771 | 0.2221 | 0.2846 | 0.1179 | 0.6234 | 0.03861 | 0.02653 | Cc1cc(C(=O)Nc2nc3cccc(Cl)c3n2[C@@H]2CCCCN(C(=O)/C=C/CN(C)C)C2)ccn1 [Nazartinib] | ratio of IC50 for cells with mutant EGFR to IC50 for cells with wildtype EGFR (Mut/WT) (EGFR N771dupN): 0.371; ratio of the IC50 value for cells with a PACC EGFR mutation to the IC50 value for cells with wildtype EGFR (EGFR E709A G719S): 0.09237; ratio of IC50 for cells with mutant EGFR to IC50 for cells with wildtype EGFR (Mut/WT) (EGFR L858R T790M L792H): 0.02884; ratio of IC50 for cells with mutant EGFR to IC50 for cells with wildtype EGFR (Mut/WT) (EGFR S784F): 0.03107; ratio of IC50 for cells with mutant EGFR to IC50 for cells with wildtype EGFR (Mut/WT) (EGFR S811F): 0.00115; ratio of IC50 for cells with mutant EGFR to IC50 for cells with wildtype EGFR (Mut/WT) (EGFR Ex19del/T790M/L792H): 4.292; ratio of the IC50 value for cells with a PACC EGFR mutation to the IC50 value for cells with wildtype EGFR (EGFR G724S): 0.869
0.04611 | 0.02165 | 0.8629 | 0.3582 | 0.1715 | 0.03389 | 0.4165 | 0.01516 | 0.02453 | 0.007216 | 0.0215 | 0.0007936 | 0.1109 | 0.3121 | 0.3924 | 0.5131 | 0.06988 | 2.324 | 0.05048 | 0.0114 | C=CC(=O)Nc1cccc(Oc2nc(Nc3ccc(N4CCN(C)CC4)cc3)nc3ccsc23)c1 [Olmutinib] | ratio of IC50 for cells with mutant EGFR to IC50 for cells with wildtype EGFR (Mut/WT) (EGFR N771dupN): 0.4208; ratio of the IC50 value for cells with a PACC EGFR mutation to the IC50 value for cells with wildtype EGFR (EGFR E709A G719S): 0.1443; ratio of IC50 for cells with mutant EGFR to IC50 for cells with wildtype EGFR (Mut/WT) (EGFR L858R T790M L792H): 0.004757; ratio of IC50 for cells with mutant EGFR to IC50 for cells with wildtype EGFR (Mut/WT) (EGFR S784F): 0.14; ratio of IC50 for cells with mutant EGFR to IC50 for cells with wildtype EGFR (Mut/WT) (EGFR S811F): 0.0307; ratio of IC50 for cells with mutant EGFR to IC50 for cells with wildtype EGFR (Mut/WT) (EGFR Ex19del/T790M/L792H): 2.218; ratio of the IC50 value for cells with a PACC EGFR mutation to the IC50 value for cells with wildtype EGFR (EGFR G724S): 0.1827
